Test results reported in patent US11364225B2, “Pharmaceutical formulation for treating symptoms of migraine and cluster headaches, and method of using the same” (BN INTELLECTUAL PROPERTIES, INC., priority 2019, dated 2022).
Read-outs that look alike come from different tables or passages of the source.

Key:
[1] = cited from earlier work
[2] = Treatment of migraine headache symptoms (pain phase) with an inhaled plume of particles from an active mesh nebulizer; format: in vivo, patient (adult)
Experimental: In a non-limiting example, an adult with a history of chronic migraine headaches was treated for migraine headache symptoms during the pain phase using an inhaled plume of particles from an active mesh nebulizer as described herein, and as described in U.S. patent application Ser. No. 16/836,485, titled “NEBULIZER FOR TIME-REGULATED DELIVERY”. The person was provided with an active mesh nebulizer containing a solution of sumatriptan succinate in water at 0.1996 weight % (wt %) [e.g., 4 mg sumatriptan succinate in 2 grams of water, such that (0.004 g sumatriptan succinate/2.004 g solution)*100=0.1996 wt % sumatriptan succinate] which produced a plume of particles where over 95% of the particles have individual particle diameters ranging from about 0.5 μm to about 3.0 μm. The active mesh nebulizer was configured to produce a plume of particles by nebulizing the sumatriptan succinate solution at a rate of 0.2 milliliters per minute (ml/min) for one minute, resulting in a patient dose for a first inhalation session (e.g., six 10-second inhaled plume pulses) of not more than 4 mg sumatriptan succinate.
The person had indicated in their medical history that they had regularly experienced migraine headache symptoms, at a frequency of about 3-4 episodes per week, over several months prior to the treatment.

| Compound | relief time (symptom relief) ([1]; sub-lingual delivery, according to theory and belief) [min] | relief time (patient relief) ([1]; intra-nasal delivery, according to theory and belief) [min] | relief time (patient relief) ([1]; sub-cutaneous delivery, after injection) [min] | migraine headache symptoms, self-evaluated after treatment ([2]; one adult with chronic migraine, inhaled, 0.1996 wt % solution in water, six 10-second plume pulses, not more than 4 mg, evaluated after waiting 5 minutes) | remission after treatment ([2]; same patient, about 3-4 episodes per week before treatment) |
| --- | --- | --- | --- | --- | --- |
| CN(C)CCc1c[nH]c2ccc(C[C@H]3COC(=O)N3)cc12 [zolmitriptan] | ≤ 30 |  |  |  |  |
| CNS(=O)(=O)Cc1ccc2[nH]cc(CCN(C)C)c2c1 [sumatriptan succinate] |  | 30 to 60 | 60 to 90 | completely abated | more than seven days |
